{
  "source": "patent US12077503B2",
  "about": "“Substituted cyclic amides and their use as herbicides” (FMC CORPORATION, priority 2015, dated 2024)",
  "type_in_all_cases": "in vivo",
  "key": {"rice (Oryra sativa)": {"test_system": "rice (Oryra sativa)", "assay": "Test B flooded paddy test", "settings": "Oryza sativa, Flood, 250 g ai/ha; scale of 0 to 100 where 0 is no effect and 100 is complete control; read-out: Rice plant response rating", "in_short": "(§1)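 Flooding to 3 cm over soil accompanied treatment, which consisted of adding compound to the standing water around 2-leaf plants; depth was then maintained. Visual assessment versus controls followed at 13 to 15 d (scale 0–100, 0 meaning no effect).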"}, "[1]": {"test_system": "sedge, umbrella (small-flower umbrella sedge, Cyperus difformis)", "assay": "Test B flooded paddy test", "settings": "Cyperus difformis, Flood, 250 g ai/ha; scale of 0 to 100 where 0 is no effect and 100 is complete control; read-out: Sedge, Umbrella plant response rating", "in_short": "as §1"}, "[2]": {"test_system": "ducksalad (Heteranthera limosa)", "assay": "Test B flooded paddy test", "settings": "Heteranthera limosa, Flood, 250 g ai/ha; scale of 0 to 100 where 0 is no effect and 100 is complete control; read-out: Ducksalad plant response rating", "in_short": "as §1"}, "[3]": {"test_system": "barnyardgrass (Echinochloa crus-galli)", "assay": "Test B flooded paddy test", "settings": "Echinochloa crus-galli, Flood, 250 g ai/ha; scale of 0 to 100 where 0 is no effect and 100 is complete control; read-out: Barnyardgrass plant response rating", "in_short": "as §1"}, "Kochia (Kochia scoparia) [4]": {"test_system": "Kochia (Kochia scoparia)", "assay": "Test A preemergence", "settings": "Bassia scoparia, pre-emergence, 240 h, Preemergence", "in_short": "(§2)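 Seeded soil received test chemicals as a preemergence directed spray, and seedlings at one to two leaves, 2–10 cm tall, received them postemergence, in a non-phytotoxic, surfactant-containing solvent mixture. Pots were held in a greenhouse for approximately 10 d, then rated for injury from 0, no effect, to 100, complete control.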"}, "[5]": {"test_system": "ryegrass, Italian (Italian ryegrass, Lolium multiflorum)", "assay": "Test A preemergence", "settings": "Lolium multiflorum, pre-emergence, 240 h, Preemergence", "in_short": "as §2"}, "[6]": {"test_system": "pigweed (Amaranthus retroflexus)", "assay": "Test A preemergence", "settings": "Amaranthus retroflexus, pre-emergence, 240 h, Preemergence"}, "[7]": {"test_system": "giant foxtail (Setaria faberii)", "assay": "Test A preemergence", "settings": "Setaria faberi, pre-emergence, 240 h, Preemergence", "in_short": "as §2"}, "[8]": {"test_system": "ragweed (common ragweed, Ambrosia elatior)", "assay": "Test A preemergence", "settings": "Ambrosia artemisiifolia, pre-emergence, 240 h, Preemergence", "in_short": "as §2"}, "[9]": {"test_system": "barnyardgrass (Echinochloa crus-galli)", "assay": "Test A preemergence", "settings": "Echinochloa crus-galli, pre-emergence, 240 h, Preemergence", "in_short": "as §2"}, "[10]": {"test_system": "Galium (catchweed bedstraw, Galium aparine)", "assay": "Test A postemergence", "settings": "Galium, post-emergence, 240 h, Postemergence, read-out: Plant response rating, Galium", "in_short": "as §2"}, "Kochia (Kochia scoparia) [11]": {"test_system": "Kochia (Kochia scoparia)", "assay": "Test A postemergence", "settings": "Bassia scoparia, post-emergence, 240 h, Postemergence, read-out: Plant response rating, Kochia", "in_short": "as §2"}, "[12]": {"test_system": "wheat (Triticum aestivum)", "assay": "Test A postemergence", "settings": "Triticum aestivum, post-emergence, 240 h, Postemergence, read-out: Plant response rating, Wheat", "in_short": "as §2"}, "[13]": {"test_system": "ryegrass, Italian (Italian ryegrass, Lolium multiflorum)", "assay": "Test A postemergence", "settings": "Lolium multiflorum, post-emergence, 240 h, Postemergence, read-out: Plant response rating, Ryegrass, Italian", "in_short": "as §2"}, "[14]": {"test_system": "pigweed (Amaranthus retroflexus)", "assay": "Test A postemergence", "settings": "Amaranthus retroflexus, post-emergence, 240 h, Postemergence, read-out: Plant response rating, Pigweed", "in_short": "as §2"}, "corn (Zea mays)": {"test_system": "corn (Zea mays)", "assay": "Test A postemergence", "settings": "Zea mays, post-emergence, 240 h, Postemergence", "in_short": "as §2"}, "[15]": {"test_system": "blackgrass (Alopecurus myosuroides)", "assay": "Test A postemergence", "settings": "Alopecurus myosuroides, post-emergence, 240 h, Postemergence, read-out: Plant response rating, Blackgrass", "in_short": "as §2"}, "[16]": {"test_system": "giant foxtail (Setaria faberii)", "assay": "Test A postemergence", "settings": "Setaria faberi, post-emergence, 240 h, Postemergence, read-out: Plant response rating, Foxtail, Giant", "in_short": "as §2"}, "[17]": {"test_system": "ragweed (common ragweed, Ambrosia elatior)", "assay": "Test A postemergence", "settings": "Ambrosia artemisiifolia, post-emergence, 240 h, Postemergence, read-out: Plant response rating, Ragweed", "in_short": "as §2"}, "[18]": {"test_system": "barnyardgrass (Echinochloa crus-galli)", "assay": "Test A postemergence", "settings": "Echinochloa crus-galli, post-emergence, 240 h, Postemergence, read-out: Plant response rating, Barnyardgrass", "in_short": "as §2"}, "[19]": {"settings": "125 g ai/ha, visual injury after approximately 10 d, 0 to 100 scale where 0 is no effect and 100 is complete control"}, "[20]": {"settings": "31 g ai/ha, visual injury after approx. 10 d, 0 to 100 scale, 0 no effect, 100 complete control"}},
  "data": [
    {"smiles": "CC(C)Oc1cc([C@H]2CN(C)C(=O)[C@@H]2C(=O)Nc2cccc(F)c2F)cc(C(F)(F)F)c1", "note": "[Compound 972]", "values": [
      {"measurement": "pest or weed control at 250 g/ha", "setting": "rice (Oryra sativa)", "result": 50, "unit": "%"},
      {"measurement": "pest or weed control at 250 g/ha", "setting": "[1]", "result": 0, "unit": "%"},
      {"measurement": "pest or weed control at 250 g/ha", "setting": "[2]", "result": 85, "unit": "%"},
      {"measurement": "pest or weed control at 250 g/ha", "setting": "[3]", "result": 80, "unit": "%"},
      {"measurement": "pest or weed control at 125 g/ha", "setting": "Kochia (Kochia scoparia) [4]; 125 g ai/ha, visual injury rating after approximately 10 d, read-out: Kochia plant response rating (0 to 100 scale, 0 is no effect, 100 is complete control)", "result": 0, "unit": "%"},
      {"measurement": "pest or weed control at 31 g/ha", "setting": "Kochia (Kochia scoparia) [4]; 31 g ai/ha, 0 to 100 scale (0 no effect, 100 complete control), read-out: Plant response rating, Kochia", "result": 0, "unit": "%"},
      {"measurement": "pest or weed control at 125 g/ha", "setting": "[5]; 125 g ai/ha, visual injury rating after approximately 10 d, read-out: Ryegrass, Italian plant response rating (0 to 100 scale, 0 is no effect, 100 is complete control)", "result": 90, "unit": "%"},
      {"measurement": "pest or weed control at 31 g/ha", "setting": "[5]; 31 g ai/ha, 0 to 100 scale (0 no effect, 100 complete control), read-out: Plant response rating, Ryegrass, Italian", "result": 50, "unit": "%"},
      {"measurement": "pest or weed control at 125 g/ha", "setting": "[6]; 125 g ai/ha, visual injury rating after approximately 10 d, read-out: Pigweed plant response rating (0 to 100 scale, 0 is no effect, 100 is complete control)", "result": 0, "unit": "%"},
      {"measurement": "pest or weed control at 31 g/ha", "setting": "[6]; 31 g ai/ha, 0 to 100 scale (0 no effect, 100 complete control), read-out: Plant response rating, Pigweed", "result": 0, "unit": "%"},
      {"measurement": "pest or weed control at 125 g/ha", "setting": "[7]; 125 g ai/ha, visual injury rating after approximately 10 d, read-out: Foxtail, Giant plant response rating (0 to 100 scale, 0 is no effect, 100 is complete control)", "result": 80, "unit": "%"},
      {"measurement": "pest or weed control at 31 g/ha", "setting": "[7]; 31 g ai/ha, 0 to 100 scale (0 no effect, 100 complete control), read-out: Plant response rating, Foxtail, Giant", "result": 80, "unit": "%"},
      {"measurement": "pest or weed control at 125 g/ha", "setting": "[8]; 125 g ai/ha, visual injury rating after approximately 10 d, read-out: Ragweed plant response rating (0 to 100 scale, 0 is no effect, 100 is complete control)", "result": 20, "unit": "%"},
      {"measurement": "pest or weed control at 31 g/ha", "setting": "[8]; 31 g ai/ha, 0 to 100 scale (0 no effect, 100 complete control), read-out: Plant response rating, Ragweed", "result": 0, "unit": "%"},
      {"measurement": "pest or weed control at 125 g/ha", "setting": "[9]; 125 g ai/ha, visual injury rating after approximately 10 d, read-out: Barnyardgrass plant response rating (0 to 100 scale, 0 is no effect, 100 is complete control)", "result": 80, "unit": "%"},
      {"measurement": "pest or weed control at 31 g/ha", "setting": "[9]; 31 g ai/ha, 0 to 100 scale (0 no effect, 100 complete control), read-out: Plant response rating, Barnyardgrass", "result": 70, "unit": "%"},
      {"measurement": "pest or weed control at 125 g/ha", "setting": "[10]; [19]", "result": 30, "unit": "%"},
      {"measurement": "pest or weed control at 31 g/ha", "setting": "[10]; [20]", "result": 0, "unit": "%"},
      {"measurement": "pest or weed control at 125 g/ha", "setting": "Kochia (Kochia scoparia) [11]; [19]", "result": 0, "unit": "%"},
      {"measurement": "pest or weed control at 31 g/ha", "setting": "Kochia (Kochia scoparia) [11]; [20]", "result": 0, "unit": "%"},
      {"measurement": "plant injury at 125 g/ha", "setting": "[12]; [19]", "result": 40, "unit": "%"},
      {"measurement": "plant injury at 31 g/ha", "setting": "[12]; [20]", "result": 20, "unit": "%"},
      {"measurement": "pest or weed control at 125 g/ha", "setting": "[13]; [19]", "result": 20, "unit": "%"},
      {"measurement": "pest or weed control at 31 g/ha", "setting": "[13]; [20]", "result": 0, "unit": "%"},
      {"measurement": "pest or weed control at 125 g/ha", "setting": "[14]; [19]", "result": 30, "unit": "%"},
      {"measurement": "pest or weed control at 31 g/ha", "setting": "[14]; [20]", "result": 20, "unit": "%"},
      {"measurement": "Corn plant response rating (crop injury, 0 = no effect, 100 = complete kill) at 125 g/ha", "setting": "corn (Zea mays); [19]", "result": 60, "unit": "%"},
      {"measurement": "Corn plant response rating (crop injury, 0 = no effect, 100 = complete kill) at 31 g/ha", "setting": "corn (Zea mays); [20]", "result": 20, "unit": "%"},
      {"measurement": "pest or weed control at 125 g/ha", "setting": "[15]; [19]", "result": 0, "unit": "%"},
      {"measurement": "pest or weed control at 31 g/ha", "setting": "[15]; [20]", "result": 0, "unit": "%"},
      {"measurement": "pest or weed control at 125 g/ha", "setting": "[16]; [19]", "result": 60, "unit": "%"},
      {"measurement": "pest or weed control at 31 g/ha", "setting": "[16]; [20]", "result": 30, "unit": "%"},
      {"measurement": "pest or weed control at 125 g/ha", "setting": "[17]; [19]", "result": 30, "unit": "%"},
      {"measurement": "pest or weed control at 31 g/ha", "setting": "[17]; [20]", "result": 0, "unit": "%"},
      {"measurement": "pest or weed control at 125 g/ha", "setting": "[18]; [19]", "result": 50, "unit": "%"},
      {"measurement": "pest or weed control at 31 g/ha", "setting": "[18]; [20]", "result": 50, "unit": "%"}
    ]}
  ]
}
